Experimental data reported in patent US7786040B2, “4-cyclopropyl-1,2,3,-thiadiazole compound, agrohorticultural plant disease controlling agent and method of using the same” (Nihon Nohyaku Co., Ltd., priority 2005, dated 2010).

Assays:
[1] = test system: powdery mildew fungus (Blumeria graminis); experiment: Test Example 1: controlling effect by seed dressing against wheat powdery mildew; assay type: in vivo; conditions: 0.15% active ingredient based on weight of dry seeds, inoculated 25 days after sowing, investigated 7 days after inoculation
Text: (§1) Seeds of wheat (cultivar: chihoku komugi) and a wettable powder prepared according to Formulation Example were placed in a vinyl bag, followed by adding thereto a small volume of water, and they were mixed to conduct seed dressing. On the day after this treatment, the seeds sowed in a plastic pot of 10 cm diameter, and cultivated in a greenhouse. Twenty five days after sowing, the seedlings thus obtained were inoculated with powdery mildew fungus (Blumeria graminis) by sprinkling. Seven days after inoculation, the seedlings were investigated and infection index was estimated according to the criterion shown below, after which the control efficacy (%) was calculated. In this occasion, infection index on the untreated plot was 8.0. As comparative examples, the following compounds described in JP-A-2001-10909 were evaluated. • I: 3′-chloro-4,4′-dimethyl-1,2,3-thiadiazole-5-carboxanilide • II: benzyl 4-isopropyl-1,2,3-thiadiazole-5-carboxylate • III: methyl 4-cyclopropyl-1,2,3-thiadiazole-5-carboxylate • IV: 4-cyclopropyl-1,2,3-thiadiazole-5-carboxylic acid Infection Index • 0: No infection. • 0.5: Lesion area percentage: less than 10% • 1: Lesion area percentage; 10 to less than 20% • 2: Lesion area percentage; 20 to less than 30% • 3: Lesion area percentage; 30 to less than 40% • 4: Lesion area percentage; 40 to less than 50% • 5: Lesion area percentage; 50 to less than 60% • 6: Lesion area percentage; 60 to less than 70% • 7: Lesion area percentage; 70 to less than 80% • 8: Lesion area percentage; 80 to less than 90% • 9: Lesion area percentage; 90 to less than 100% • 10: Lesion area percentage; 100% Control efficacy (%)={1-(infection index on treated plot/infection index on untreated plot)}×100 Rank of Control Efficacy • A: Control efficacy 100-90% • B: Control efficacy 89-80% • C: Control efficacy 79-60% • D: Control efficacy 59-0%

[2] = test system: wheat (cultivar: Chihoku Komugi); experiment: Test Example 3: phytotoxicity for wheat by treatment of seeds (safety test on plant); assay type: in vivo; conditions: wheat seed dressing, 0.15% active ingredient based on weight of dry seeds; 7 and 14 days after sowing
Protocol: Seeds of wheat (cultivar: Chihoku Komugi) and a wettable powder prepared according to Formulation Example were placed in a vinyl bag, followed by adding thereto a small volume of water, and they were mixed to conduct seed dressing. On the day after this treatment, the seeds sowed in a plastic pot of 10 cm diameter, and cultivated in a greenhouse. Seven days and fourteen days after sowing, phytotoxicity for germination of the seeds and growth at the early stage were evaluated.

[3] = test system: powdery mildew fungus (Blumeria graminis); experiment: Test Example 2: controlling effect by seed dressing against wheat powdery mildew, long-lasting effect; assay type: in vivo; conditions: 0.15% active ingredient based on weight of dry seeds, inoculated 50 days after sowing, investigated 7 days after inoculation
Text: as §1
Seeds of wheat (cultivar: Chihoku Komugi) and a wettable powder prepared according to Formulation Example were placed in a vinyl bag, followed by adding thereto a small volume of water, and they were mixed to conduct seed dressing. On the day after this treatment, the seeds sowed in a plastic pot of 10 cm diameter, and cultivated in a greenhouse. Fifty days after sowing, the seedlings thus obtained were inoculated with powdery mildew fungus (Blumeria graminis) by sprinkling. Seven days after inoculation, the seedlings were investigated and infection index was estimated according to the criterion shown below, after which the control efficacy (%) was calculated. In this occasion, infection index on the untreated plot was 8.0. As comparative examples, the above-described compounds I, II, III and IV were evaluated.

With `CCCCCCCCOC(=O)c1snnc1C1CC1` [1-8] the “Rank of control efficacy” value [1] was “B or more” and the “phytotoxicity for germination of the seeds and growth at the early stage” value (“phytotoxicity for germination” below) [2] was “absolutely no phytotoxicity”.

With `O=C(OCc1cccc(Cl)c1)c1snnc1C1CC1` [1-11] the “Rank of control efficacy” value [1] was “B or more” and the “phytotoxicity for germination” value [2] was “absolutely no phytotoxicity”.

With `O=C(OCc1ccc(Cl)cc1)c1snnc1C1CC1` [1-12] the “Rank of control efficacy” value [1] was “B or more” and the “phytotoxicity for germination” value [2] was “absolutely no phytotoxicity”.

For `COC(=O)c1ccc(COC(=O)c2snnc2C2CC2)cc1` [1-24], the “Rank of control efficacy” value [1] was “B or more” and the “phytotoxicity for germination” value [2] was “absolutely no phytotoxicity”.

In the case of `O=C(OCc1cc(Cl)cc(Cl)c1)c1snnc1C1CC1` [1-30], the “Rank of control efficacy” value [1] is reported as “B or more” and the “phytotoxicity for germination” value [2] is reported as “absolutely no phytotoxicity”.

For `CC(OC(=O)c1snnc1C1CC1)c1ccc(Cl)cc1` (stereo not shown) [1-44], the “Rank of control efficacy” value [1] was “B or more” and the “phytotoxicity for germination” value [2] was “absolutely no phytotoxicity”.

In the case of `O=C(NCc1ccccc1)c1snnc1C1CC1` [1-53], the “Rank of control efficacy” value [1] is reported as “B or more” and the “phytotoxicity for germination” value [2] is reported as “absolutely no phytotoxicity”.

In the case of `CC(C)(C)c1ccc(CNC(=O)c2snnc2C2CC2)cc1` [1-63], the “Rank of control efficacy” value [1] is reported as “B or more” and the “phytotoxicity for germination” value [2] is reported as “absolutely no phytotoxicity”.

With `Cc1ccc(NC(=O)c2snnc2C2CC2)cc1Cl` [1-95, 3′-chloro-4-cyclopropyl-4′-methyl-1,2,3-thiadiazole-5-carboxanilide] the “Rank of control efficacy” value [1] was “B or more”, the “phytotoxicity for germination” value [2] was “absolutely no phytotoxicity” and the melting point was 150 to 153 °C.

With `COc1ccc(NC(=O)c2snnc2C2CC2)c(OC)c1` [1-96] the “Rank of control efficacy” value [1] was “B or more” and the “phytotoxicity for germination” value [2] was “absolutely no phytotoxicity”.

In the case of `O=C(O)c1ccccc1NC(=O)c1snnc1C1CC1` [1-98, 2-(4-cyclopropyl-1,2,3-thiadiazol-5-ylcarbonylamino)benzoic acid], the “Rank of control efficacy” value [1] is reported as “B or more” and the “phytotoxicity for germination” value [2] is reported as “absolutely no phytotoxicity”.

With `N#Cc1ccccc1NC(=O)c1snnc1C1CC1` [1-100, 2′-cyano-4-cyclopropyl-1,2,3-thiadiazole-5-carboxanilide] the melting point was 124 °C.

In the case of `CC(C)Cc1csc(NC(=O)c2snnc2C2CC2)n1` [1-110], the “Rank of control efficacy” value [1] is reported as “B or more” and the “phytotoxicity for germination” value [2] is reported as “absolutely no phytotoxicity”.

With `O=C(NS(=O)(=O)c1ccccc1)c1snnc1C1CC1` [1-121] the “Rank of control efficacy” value [1] was “B or more” and the “phytotoxicity for germination” value [2] was “absolutely no phytotoxicity”.

With `COc1ccc(CNC(=O)c2snnc2C2CC2)cc1OC` [1-166] the “Rank of control efficacy” value [1] was “B or more” and the “phytotoxicity for germination” value [2] was “absolutely no phytotoxicity”.

In the case of `O=C(O)c1snnc1C1CC1` [Comparative compound IV, 4-cyclopropyl-1,2,3-thiadiazole-5-carboxylic acid], the “Rank of control efficacy” value [3] is reported as “B (Control efficacy 89-80%)”, the “phytotoxicity for germination” value [2] is reported as “delay germination and suppressed growth” and the melting point is reported as 158 to 159 °C.

With `COC(=O)c1snnc1C1CC1` [III, methyl 4-cyclopropyl-1,2,3-thiadiazole-5-carboxylate] the melting point was 47 °C.
